# Measurements as given in US12252522B2, “Myokines for treating cell proliferative and metabolic diseases and disorders” (Northwestern University, priority 2019, dated 2025).
# Tests used:
# [1] = system: pancreatic ductal carcinoma PDX model; experiment: in vivo validation of CPT on pancreatic ductal carcinoma PDX model; conditions: co-treatment gemcitabine 10 mg/kg + 9-ING-41 40 mg/kg, i.p. 3x a week
# [2] = system: HCT116 colon cancer cells; experiment: PWS imaging of HCT116 cells after chemotherapy, CPT and their combination; type: cell-based; conditions: celecoxib (CPT) added to oxaliplatin
# [3] = system: cancer cells; experiment: live cell PWS (D) and transcriptional heterogeneity of cancer cells surviving chemotherapy; type: cell-based
# Description: FIGS. 2A-2K. Four aspects of transcriptional heterogeneity regulation by chromatin D: (a) diversity (the relative dynamic range of expression; HT29 cells, 2445 genes), (b) intercellular heterogeneity, (c) intranetwork heterogeneity, and (d) amplification of changes in expression (ratio of changes in the expression rate of 800 significant genes induced by paclitaxel in A2780 ovarian cancer cells for high- vs. low-D cells). Predictions of a computational transcriptomics (multiscale analysis, MSA) model are shown as blue curves. (e) Chemotherapy leads to the survival of cancer cells with high D (middle-top panel; live cell PWS images of D; arrows: nuclei) and transcriptional (right-top) heterogeneity, while CPT agents (digoxin) decrease both (bottom). Left panels: MSA simulations of chromatin packing show a CPT-induced transition from a network to polymer-like packing. (f) Cells surviving chemotherapy treatment (paclitaxel (PAC); 48 h, A2780) have a larger global transcriptional space (single cell sequencing) while CPT (celecoxib) reduces it. (g) PWS images of HCT116 colon cancer cells after treatment with chemotherapy (oxaliplatin), CPT (celecoxib), and their combination. The addition of a CPT leads to >98% cancer cell death. […] Key: docetaxel (D), paclitaxel (P), oxaliplatin (0), digoxin (D), celecoxib (C), VPA (V), aspirin (A). […]
# [4] = system: HT29; experiment: growth of HT29 cells treated with myostatin or metrnl and oxaliplatin; type: cell-based, human; conditions: for growth of colorectal cancer cell line: HT29, alone; for effect in combination with oxaliplatin: HT29, combination with oxaliplatin
# Description: FIGS. 6A-6C. Treatment of colon cancer cells lines with myokines and oxaliplatin. (a) HCT116 cells treated with myokines, oxaplatin, and combination of myokines and oxaplatin. (b) H29 cells treated with oxoplatin (ox), myostatin, and a combination of myostatin and oxaplatin. (c) H29 cells treated with oxoplatin (ox), metrnl, and a combination of metrnl and oxaplatin.
# Next, we treated colorectal cancer cell lines HCT116 and HT29 with a myokine fraction and the specific myokines myostain and metrnl either by themselves or in combination with oxaliplatin. […] (See FIG. 6).
Molecule,growth of colorectal cancer cell line [4],effect in combination with oxaliplatin [4],further results
Cn1cc(C2=C(c3coc4ccc(F)cc34)C(=O)NC2=O)c2cc3c(cc21)OCO3 [9-ING-41],,,tumor volume relative to initial size [1]: < 4 % of the initial size
Cc1ccc(-c2cc(C(F)(F)F)nn2-c2ccc(S(N)(=O)=O)cc2)cc1 [celecoxib],,,cancer cell death [2]: > 98%
C[C@H]1O[C@@H](O[C@H]2[C@@H](O)C[C@H](O[C@H]3[C@@H](O)C[C@H](O[C@H]4CC[C@@]5(C)[C@H](CC[C@@H]6[C@@H]5C[C@@H](O)[C@]5(C)[C@@H](C7=CC(=O)OC7)CC[C@]65O)C4)O[C@@H]3C)O[C@@H]2C)C[C@H](O)[C@@H]1O [digoxin],,,chromatin packing scaling D [3]: decrease both
myostatin [myostain],reduced the growth,synergistic effect,
"metrnl (protein, UniProt Q641Q3 46-311, looked up, specific myokine) Meteorin-like protein: QYSSDRCSWKGSGLTHEAHRKEVEQVYLRCAAGAVEWMYPTGALIVNLRPNTFSPARHLTVCIRSFTDSSGANIYLEKTGELRLLVPDGDGRPGRVQCFGLEQGGLFVEATPQQDIGRRTTGFQYELVRRHRASDLHELSAPCRPCSDTEVLLAVCTSDFAVRGSIQQVTHEPERQDSAIHLRVSRLYRQKSRVFEPVPEGDGHWQGRVRTLLECGVRPGHGDFLFTGHMHFGEARLGCAPRFKDFQRMYRDAQERGLNPCEVGTD",reduced the growth,synergistic effect,
